Assay results from ChEMBL document CHEMBL5728971, “Small molecule inhibitors of lactate dehydrogenase and methods of use thereof” (2022).

experiment: Biochemical Assay: Test compounds were placed in a Greiner Bio-One (Monroe, N.C.) 1536-well black solid bottom assay plate. 200 millimolar (mM) Tris HCl, pH 7.4, 100 micromolar (μM) EDTA and 0.01% TWEEN-20™, final concentration, was used as the assay buffer. The LDHA reagent was 2 nanomolar (nM) Human LDHA (Meridian Life Science, Inc., Memphis, Tenn.), final concentration, in assay buffer.

Row | Structure (SMILES) | IC50
1 | NS(=O)(=O)c1ccc(Cc2c(-c3cccc(-c4ccccc4)c3)nn(-c3nc(C(=O)O)cs3)c2CC(F)(F)F)cc1 | in the range around 550 nM
2 | O=C(O)c1csc(-n2nc(-c3ccc(F)cc3)cc2O)n1 | > 57000 nM
3 | NS(=O)(=O)c1ccc(Cc2c(CC3CC3)nn(-c3nc(C(=O)O)cs3)c2-c2cccc(-c3ccccc3)c2)cc1F | in the range around 29000 nM
4 | Cc1noc(C)c1-c1cc(-c2c(Cc3ccc(S(N)(=O)=O)c(F)c3)c(CC3CC3)nn2-c2nc(C(=O)O)cs2)ccc1F | > 57000 nM
5 | COc1ccc(-c2cc(O)n(-c3nc(C(=O)O)cs3)n2)cc1 | > 57000 nM
6 | CCOC(=O)c1csc(-n2nc(-c3cccc(-c4ccccc4)c3)c(Cc3ccc(S(N)(=O)=O)cc3)c2CC2CC2)n1 | in the range around 29000 nM
7 | CC(C)=Cc1cc(-c2nn(-c3nc(C(=O)O)cs3)c(CC3CC3)c2Cc2ccc([SH+](N)[O-])c(F)c2)ccc1F (stereo unspecified) | < 100 nM
8 | Cc1csc(-c2cc(-c3c(Cc4ccc(S(N)(=O)=O)cc4F)c(CC4CC4)nn3-c3nc(C(=O)O)cs3)ccc2F)c1 | > 57000 nM
9 | CCOC(=O)c1csc(-n2nc(-c3ccc(F)c(-c4cccc(OC)c4)c3)c(Cc3ccc(S(N)(=O)=O)cc3F)c2CC2CC2)n1 | > 57000 nM
10 | NS(=O)(=O)c1ccc(Cc2c(-c3cccc(N4CCC(F)(F)C4)c3)nn(-c3nc(C(=O)O)cs3)c2CC2CC2)cc1F | in the range around 29000 nM
11 | NS(=O)(=O)c1ccc(Cc2c(-c3ccc(F)c(C#CC(F)(F)F)c3)nn(-c3nc(C(=O)O)cs3)c2CC2CC2)cc1F | in the range around 550 nM
12 | CCOC(=O)c1csc(-n2nc(-c3cccc(OC4CCCC4)c3)c(Cc3ccc(S(N)(=O)=O)cc3F)c2CC2CC2)n1 | in the range around 29000 nM
13 | CCOC(=O)c1csc(-n2nc(-c3cccc(-c4ccc(C)cc4)c3)c(Cc3ccc(S(N)(=O)=O)cc3F)c2CC2CC2)n1 | > 57000 nM
14 | CCOC(=O)c1csc(-n2nc(-c3ccc(F)c(-c4cccc(OC)c4)c3)c(Cc3ccc(S(N)(=O)=O)c(F)c3)c2CC2CC2)n1 | in the range around 29000 nM
15 | NC(=O)c1csc(-n2nc(-c3cccc(-c4ccccc4)c3)c(Cc3ccc(S(N)(=O)=O)cc3)c2O)n1 | > 57000 nM
16 | NS(=O)(=O)c1ccc(Cc2c(C3(C(F)(F)F)CC3)nn(-c3nc(C(=O)O)cs3)c2-c2cccc(-c3ccccc3)c2)cc1 | in the range around 29000 nM
17 | COc1cccc(-c2cc(-c3c(Cc4ccc(S(N)(=O)=O)cc4)c(CC4CC4)nn3-c3nc(C(=O)O)cs3)ccc2F)c1 | > 57000 nM
18 | NS(=O)(=O)c1ccc(NCc2cn(-c3nc(C(=O)O)cs3)nc2-c2ccccc2)cc1 | > 57000 nM
19 | CCOC(=O)c1csc(-n2nc(-c3ccc(F)c(C#CC4CCCC4)c3)c(Cc3ccc(S(N)(=O)=O)c(F)c3)c2CC2CC2)n1 | > 57000 nM
20 | CCOC(=O)c1csc(-n2nc(CC3CC3)c(Cc3ccc(S(N)(=O)=O)cc3F)c2-c2ccc(F)c(-c3cccc(OC)c3)c2)n1 | > 57000 nM
21 | CCOC(=O)c1csc(-n2nc(-c3ccc(F)c(C#CC4CCCC4)c3)c(Cc3ccc(S(N)(=O)=O)c(F)c3)c2C2CC2)n1 | in the range around 29000 nM
22 | NS(=O)(=O)c1ccc(Cc2c(CC3CC3)nn(-c3nc(C(=O)O)cs3)c2-c2ccc(F)c(-c3ccc(F)cc3)c2)c(F)c1 | in the range around 29000 nM
23 | Cc1ccc(-c2cc(-c3nn(-c4nc(C(=O)O)cs4)c(CC4CC4)c3Cc3ccc(S(N)(=O)=O)c(F)c3)ccc2F)s1 | < 100 nM
24 | CCOC(=O)c1csc(-n2nc(-c3cccc(-c4ccccc4)c3)c(Cc3ccc(S(N)(=O)=O)cc3F)c2C2CC2)n1 | > 57000 nM
25 | CC#Cc1cc(-c2nn(-c3nc(C(=O)O)cs3)c(CC3CC3)c2Cc2cccc(S(N)(=O)=O)c2)ccc1F | < 100 nM

Results, then the compound that gave them:

Row | IC50 | Structure (SMILES)
26 | < 100 nM | NS(=O)(=O)c1ccc(Oc2cn(-c3nc(C(=O)O)cs3)nc2-c2ccccc2)cc1
27 | < 100 nM | COc1cccc(-c2cc(-c3nn(-c4nc(C(=O)O)cs4)c(C4CC4)c3Cc3ccc(S(N)(=O)=O)cc3F)ccc2F)c1
28 | < 100 nM | NS(=O)(=O)c1ccc(Cc2c(-c3ccc(F)c(C#CCN4CCCC4)c3)nn(-c3nc(C(=O)O)cs3)c2CC2CC2)cc1F
29 | < 100 nM | NS(=O)(=O)c1ccc(Cc2c(-c3ccc(F)c(-c4ccccc4F)c3)nn(-c3nc(C(=O)O)cs3)c2CC2CC2)cc1F
30 | < 100 nM | NS(=O)(=O)c1ccc(Cc2c(-c3cccc(-c4cccc(F)c4)c3)nn(-c3nc(C(=O)O)cs3)c2C(F)(F)F)cc1
31 | < 100 nM | NS(=O)(=O)c1ccc(Cc2c(-c3ccc(F)c(C4CCCC4)c3)nn(-c3nc(C(=O)O)cs3)c2CC2CC2)cc1F
32 | < 100 nM | NS(=O)(=O)c1ccc(Cc2c(-c3ccc(F)c(C#CCCO)c3)nn(-c3nc(C(=O)O)cs3)c2CC2CC2)cc1F
33 | < 100 nM | Cn1cncc1C#Cc1cc(-c2nn(-c3nc(C(=O)O)cs3)c(CC3CC3)c2Cc2ccc(S(N)(=O)=O)c(F)c2)ccc1F
34 | < 100 nM | NS(=O)(=O)c1ccc(Cc2c(-c3ccccc3)nn(-c3nc(C(=O)O)cs3)c2-c2ccccc2)cc1
35 | < 100 nM | N#CC#Cc1cc(-c2nn(-c3nc(C(=O)O)cs3)c(CC3CC3)c2Cc2ccc(S(N)(=O)=O)c(F)c2)ccc1F
36 | < 100 nM | NS(=O)(=O)c1ccc(Cc2c(-c3ccc(F)c(-c4ccc(F)s4)c3)nn(-c3nc(C(=O)O)cs3)c2CC2CC2)cc1F
37 | < 100 nM | Cn1cc(-c2cc(-c3nn(-c4nc(C(=O)O)cs4)c(CC4CC4)c3Cc3ccc(S(N)(=O)=O)c(F)c3)ccc2F)cn1
38 | < 100 nM | C/C=C(\C)c1cc(-c2nn(-c3nc(C(=O)O)cs3)c(CC3CC3)c2Cc2ccc(S(N)(=O)=O)c(F)c2)ccc1F
39 | < 100 nM | Cc1noc(C)c1-c1cc(-c2nn(-c3nc(C(=O)O)cs3)c(CC3CC3)c2Cc2ccc(S(N)(=O)=O)cc2F)ccc1F
40 | < 100 nM | Cc1ccc(C#Cc2cc(-c3nn(-c4nc(C(=O)O)cs4)c(CC4CC4)c3Cc3ccc(S(N)(=O)=O)c(F)c3)ccc2F)s1
41 | < 100 nM | NS(=O)(=O)c1ccc(Cc2c(-c3ccc(F)c(C#CC4CC4)c3)nn(-c3nc(C(=O)O)cs3)c2CC2CC2)cc1F
42 | < 100 nM | CC(C)C#Cc1cc(-c2nn(-c3nc(C(=O)O)cs3)c(CC3CC3)c2Cc2ccc(S(N)(=O)=O)c(F)c2)ccc1F
43 | < 100 nM | NS(=O)(=O)c1ccc(Cc2c(-c3ccc(F)c(C#CC4CCCC4)c3)nn(-c3nc(C(=O)O)cs3)c2CC2CC2)cc1
44 | < 100 nM | NS(=O)(=O)c1ccc(Cc2c(-c3ccc(F)c(C(F)(F)F)c3)nn(-c3nc(C(=O)O)cs3)c2CC2CC2)cc1F
45 | < 100 nM | NS(=O)(=O)c1ccc(Cc2c(-c3ccc(F)c(C#CC4(F)CCCC4)c3)nn(-c3nc(C(=O)O)cs3)c2CC2CC2)cc1F
46 | < 100 nM | Cc1ncc(-c2cc(-c3nn(-c4nc(C(=O)O)cs4)c(CC4CC4)c3Cc3ccc(S(N)(=O)=O)c(F)c3)ccc2F)s1
47 | < 100 nM | NS(=O)(=O)c1ccc(Cc2c(-c3ccc(F)c(C4=CCN(C(=O)C5CC5)CC4)c3)nn(-c3nc(C(=O)O)cs3)c2CC2CC2)cc1F
48 | < 100 nM | CN1CCC(c2cc(-c3nn(-c4nc(C(=O)O)cs4)c(CC4CC4)c3Cc3ccc(S(N)(=O)=O)c(F)c3)ccc2F)CC1
49 | < 100 nM | NS(=O)(=O)c1ccc(Cc2c(-c3ccc(F)c(C4CCCCC4)c3)nn(-c3nc(C(=O)O)cs3)c2CC2CC2)cc1F
50 | < 100 nM | Cc1ccc(-c2cccc(-c3nn(-c4nc(C(=O)O)cs4)c(C(F)(F)F)c3Cc3ccc(S(N)(=O)=O)cc3)c2)cc1
51 | < 100 nM | NS(=O)(=O)c1ccc(Cc2c(-c3ccc(F)c(-c4cccc(F)c4)c3)nn(-c3nc(C(=O)O)cs3)c2C(F)(F)F)cc1
